The source made the active and inactive calls. The calls are words filed in the database; no cut-off is given here.

From ChEMBL document CHEMBL1255534, “Indoloditerpenes from an algicolous isolate of Aspergillus oryzae” (Bioorg Med Chem Lett, 2010) come the findings set out here.

Data set [1] concerns Colletotrichum lagenaria. The experiment in a line: Antifungal activity against Colletotrichum lagenarium at 30 ug/ml by agar diffusion test. It counts as functional, organism-based. On the technique in general: In agar diffusion tests the substance spreads into inoculated agar from a disc or well.
Data set [2] deals with Escherichia coli. The experiment in a line: Antibacterial activity against Escherichia coli at 30 ug/ml by agar diffusion test. It counts as functional.
Data set [3] concerns Fusarium oxysporum. The experiment in a line: Antifungal activity against Fusarium oxysporum at 30 ug/ml by agar diffusion test. It counts as functional, organism-based.
Data set [4] can be described thus: Toxicity in Artemia salina assessed as lethal rate at 100 ug/mL. Particulars: in vivo, read-out: Activity. It counts as organism-based.

`CC(C)=CCC[C@]1(C)[C@@H](O)CC[C@@]2(C)[C@H]1CC[C@H]1Cc3c([nH]c4ccccc34)[C@@]12C` [EMINDOLE SB]: the result in data set [1] and in data set [3] was inactive. In addition, the “diameter of the inhibition zone (DIZ)” value in data set [2] is “inactive”. Also, the mortality at 100 ug/mL in data set [4] was found to be 60.3%.
As for `CC(C)=C[C@H]1C[C@]2(C)[C@H](CC[C@@]3(C)[C@H]2CC[C@H]2Cc4c([nH]c5ccccc45)[C@@]23C)O1`, the outcome in data set [1] and in data set [3] was inactive. Also, the “diameter of the inhibition zone (DIZ)” value in data set [2] is “inactive”. Further, the mortality at 100 ug/mL in data set [4] amounted to 74.2%.
As for `CC(C)=C[C@H]1C[C@@]2(C)[C@@H]3CC[C@H]4CC5(O)c6ccccc6N5C(=O)[C@@H]4[C@@]3(C)CC[C@@H]2O1` (stereo partly specified) [ASPORYZIN B], the result in data set [1] and in data set [3] was inactive. Moreover, the “diameter of the inhibition zone (DIZ)” value in data set [2] was “inactive”. For the same compound, in data set [4], the mortality at 100 ug/mL was found to be 42.9%.
As for `C/C=C1\[C@H]2C=C(C)C[C@]1(N)c1ccc(=O)[nH]c1C2`, the “diameter of the inhibition zone (DIZ)” value in data set [2] is “inactive”. Also, the result in data set [3] was inactive.
With `C=C1[C@H](Cc2c[nH]c3ccccc23)CC[C@H]2[C@](C)(CCC=C(C)C)[C@@H](O)CC[C@]12C` [EMENIVEOL], the result in data set [1] and in data set [3] was inactive. For the same compound, the “diameter of the inhibition zone (DIZ)” value in data set [2] is “inactive”. In addition, the mortality at 100 ug/mL in data set [4] was 31.4%.
`CC(C)(O)/C=C/C[C@]1(C)[C@@H](O)CC[C@@]2(C)[C@H]1CC[C@H]1Cc3c([nH]c4ccccc34)[C@@]12C` [ASPORYZIN C]: the outcome in data set [1] and in data set [3] was inactive. For the same compound, the zone of inhibition at 30 µg/mL in data set [2] (read-out: DIZ) stood at 8.3 mm. In addition, the mortality at 100 ug/mL in data set [4] was 32.8%.
For the compound `CC(C)=C[C@H]1C[C@]2(C)[C@H](CC[C@@]3(C)[C@H]2CC[C@H]2CC(=O)c4ccccc4NC(=O)[C@@]23C)O1` [ASPORYZIN A], the result in data set [1] and in data set [3] was inactive. The “diameter of the inhibition zone (DIZ)” value in data set [2] was “inactive”. For the same compound, the mortality at 100 ug/mL in data set [4] was determined as 61.9%.
